From patent publication US20060040937A1, “N-aroyl cyclic amines as orexin receptor antagonists” (Glaxo Group Limited, priority 2002, published 2006)
Ends that are not written are not given here.

Columns and labels:
[1] = test system: rat; experiment: Rat sleep/EEG studies; type: in vivo; conditions: central administration at the onset of the normal sleep period
From the text: Therefore antagonists of its receptor may be useful in the treatment of sleep disorders including insomnia.

[2] = test system: freely-feeding rats; conditions: central administration, 4 hour time period; cited from earlier work

orexin-A: peptide ligand for the orexin-1 receptor, an agonist of the orexin receptors; amino acid sequence printed in b97-b99 (QPLPDCCRQKTCSCRLYELLHGAGNHAAGILTL; ends and bridges not checked; cysteine pairing not given here; UniProt O43612 34-66, looked up)
effect on arousal (sleep/EEG) [1]: dose-related increase in arousal
increase in food intake over control rats receiving vehicle [2]: approximately four-fold
